Source: PMC11952846, “The sterol-regulating human ARV1 binds cholesterol and phospholipids through its conserved ARV1 homology domain” (The Journal of Biological Chemistry, 2025)
Substitutions are numbered along the chain they refer to.

How the values were obtained:
6XHIS-ARV1-N98 K67A = target: T1, 6XHIS-ARV1-N98 K67A (Homo sapiens, UniProt Q9H2C2, K67A); assay: Lipid overlay far western, site-directed mutant; format: binding; conditions: compared to the ARV1-N98 protein
T1 construct: Expressing amino-terminal 98 amino acids of ARV1; made in house; host or cells: E. coli BL21 (pET-28a(+))
T1 sequence (Q9H2C2 1-98 K67A): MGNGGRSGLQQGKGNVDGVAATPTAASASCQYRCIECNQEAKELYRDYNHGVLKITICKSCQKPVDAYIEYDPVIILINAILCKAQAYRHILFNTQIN
Experimental: (§1) Lipid overlays were blocked in TBST-BSA (100 mM Tris–HCl buffer, pH 7.5, 150 mM NaCl, 0.5% Tween 20, 3% bovine serum albumin) for 1 h and subsequently washed eight separate times with TBST for 2 min each. Overlays were incubated with 0.5 μg/ml GST-tagged or 6XHIS-tagged proteins in 3% TBST-BSA buffer containing 0.1% Triton X-100, for 1 h at room temperature and washed as above. Overlays were incubated with either anti-GST or anti-6XHIS monoclonal antibodies at a 1:1000 dilution in TBST-BSA for 1 h at room temperature followed by eight washes in TBST. Overlays were visualized using Immobilon Western Chemiluminescent horseradish peroxidase substrate and protein–lipid interaction was detected using a GE ImageQuant LAS 3000 imager.

6XHIS-N98 C34/37A = target: T2, 6XHIS-N98 C34/37A (Homo sapiens, UniProt Q9H2C2, C34A/C37A); assay: HTRF phospholipid lipid-binding assay, mutant; parameters: key: NC, no change; conditions: biotinylated lipid; NC = no change vs N98
T2 construct: made in house; host or cells: E. coli BL21
T2 sequence (Q9H2C2 1-98 C34A/C37A): T1 sequence (Q9H2C2 1-98 K67A) with C34A, C37A, A67K
Description: (§2) An HTRF assay was developed for 6XHIS-ARV1-N98-lipid binding. HTRF measures analyte interactions through fluorescence resonance energy transfer technology and time-resolved measurements ([53]). The interaction between two molecules can be quantified through binding each individual molecule involved with a fluorescent label and then analyzing the transfer of energy between the initial donor fluorophore and the secondary acceptor fluorophore. Following excitation of the first fluorophore, transfer of energy can only occur if the molecules bound with the fluorescent tags are within proximity to each other.
(§3) Assays were plated in 384-well flat bottom microplates (Greiner Bio, catalog #784075-25). Proteins were diluted using binding buffer (20 mM Hepes buffer, pH 7.2, containing 0.1% BSA, and 0.01% Tween20) to a stock concentration of 0.75 μM, and biotinylated phospholipids were dispensed, dried under nitrogen gas, and resuspended in binding buffer to a stock concentration of 50 μM. The lipid stock solution was diluted by 1:2 for a series of 12 serial dilutions. For the assay, in sequential order, 6 μl of binding buffer was loaded into the plate in triplicate for each dilution of phospholipid. To this, 2 μl of 0.75 μM 6XHIS-ARV1-N98 was added, followed by 2 μl of biotinylated phospholipid. Immediately following each addition loaded into the plate, the plate was centrifuged for 1 min at 1000 rpm to bring the contents to the bottom of the well. Next, detection antibodies were mixed with detection buffer (20 mM Hepes buffer, pH 8.5, containing 0.01% BSA and 200 mM KF). Antibodies were a MAb anti-6XHIS Europium kryptate-conjugated D1 fluorescent antibody (Cisbio, #61HISKLA) and Streptavidin-conjugated d2 fluorescent antibody (Cisbio, #610SADLA). For each 1000 μl of detection buffer, 5 μl of each antibody was added just prior to loading 10 μl into each well. The plate was again centrifuged for 1 min at 1000 rpm and stored in a sealed container overnight, in the dark. Plates were read on a PerkinElmer EnVision Xcite Multilabel plate reader.
(§4) Curves were logarithmically transformed and normalized to a common scale before being fit with a nonlinear regression of the agonist against the normalized response. This generated half maximal effective concentration values (EC50; M) that could then be compared between different lipids. In the context of our study, EC50 values were defined as a measure of protein sensitivity to binding to a particular lipid within a dose response curve. For phospholipid competition analysis, IC50; M values were determined using nonlinear regression of the inhibitor against normalized response.

6XHIS-N98 D72A = target: T3, 6XHIS-N98 D72A (Homo sapiens, UniProt Q9H2C2, D72A); assay: HTRF phospholipid lipid-binding assay, mutant; parameters: key: NC, no change; conditions: biotinylated lipid; NC = no change vs N98
T3 construct: made in house; host or cells: E. coli BL21
T3 sequence (Q9H2C2 1-98 D72A): T1 sequence (Q9H2C2 1-98 K67A) with A67K, D72A
Description: as §2, §3, §4

6XHIS-N98 N94Q = target: T4, 6XHIS-N98 N94Q (Homo sapiens, UniProt Q9H2C2, N94Q); assay: HTRF phospholipid lipid-binding assay, mutant; parameters: key: NC, no change; conditions: biotinylated lipid; NC = no change vs N98
T4 construct: made in house; host or cells: E. coli BL21
T4 sequence (Q9H2C2 1-98 N94Q): T1 sequence (Q9H2C2 1-98 K67A) with A67K, N94Q
Description: as §2, §3, §4

GST-ARV1-N50 = target: T5, GST-ARV1-N50 (Homo sapiens, UniProt Q9H2C2); assay: Lipid overlay far western, truncation; format: binding; conditions: compared to ARV1-N98 / ARV1-N70
T5 construct: Expresses amino-terminal 50 amino acids of ARV1; made in house; host or cells: E. coli BL21 (pGEX-4T1)
T5 sequence (Q9H2C2 1-50): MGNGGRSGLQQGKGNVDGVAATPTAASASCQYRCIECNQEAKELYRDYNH
Experimental: as §1

6XHIS-ARV1-N98 C34/C37A = target: T6, 6XHIS-ARV1-N98 C34/C37A (Homo sapiens, UniProt Q9H2C2, C34A/C37A); assay: Lipid overlay far western, site-directed mutant; format: binding; conditions: compared to the ARV1-N98 protein
T6 construct: Expressing amino-terminal 98 amino acids of ARV1; made in house; host or cells: E. coli BL21 (pET-28a(+))
T6 sequence (Q9H2C2 1-98 C34A/C37A): T1 sequence (Q9H2C2 1-98 K67A) with C34A, C37A, A67K
Experimental: as §1

6XHIS-ARV1-N98 K84A = target: T7, 6XHIS-ARV1-N98 K84A (Homo sapiens, UniProt Q9H2C2, K84A); assay: Lipid overlay far western, site-directed mutant; format: binding; conditions: compared to the ARV1-N98 protein
T7 construct: Expressing amino-terminal 98 amino acids of ARV1; made in house; host or cells: E. coli BL21 (pET-28a(+))
T7 sequence (Q9H2C2 1-98 K84A): T1 sequence (Q9H2C2 1-98 K67A) with A67K, K84A
Experimental: as §1

Bio-PL, EC50, M ± S.D. (6XHIS-N98 C34/37A) | Bio-PL, EC50, M ± S.D. (6XHIS-N98 D72A) | Bio-PL, EC50, M ± S.D. (6XHIS-N98 N94Q) | Compound | change of lipid-protein interaction (6XHIS-ARV1-N98 K67A) | change of lipid-protein interaction (GST-ARV1-N50) | change of lipid-protein interaction (6XHIS-ARV1-N98 C34/C37A) | change of lipid-protein interaction (6XHIS-ARV1-N98 K84A)
NC | NC | NC | phosphatidylethanolamine [PE] | interacted weakly |  |  | 
NC | NC | NC | phosphatidylcholine [PC] |  |  |  | 
increased | reduced binding | reduced binding | CCCCCCCCCCCCCCCC(=O)OC[C@H](COP(=O)(O)O)OC(=O)CCCCCCCCCCCCCCC [PA, phosphatidic acid] |  |  |  | 
NC | NC | NC | CCCCC/C=C\C/C=C\CCCCCCCC(=O)OC[C@H](COP(=O)(O)OCC(O)COP(=O)(O)OC[C@@H](COC(=O)CCCCCCC/C=C\C/C=C\CCCCC)OC(=O)CCCCCCC/C=C\C/C=C\CCCCC)OC(=O)CCCCCCC/C=C\C/C=C\CCCCC (some centres unmarked) [CL, cardiolipin] |  | eliminated |  | weakened

Compound | Bio-PL, EC50, M ± S.D. (6XHIS-N98 C34/37A) | Bio-PL, EC50, M ± S.D. (6XHIS-N98 D72A) | Bio-PL, EC50, M ± S.D. (6XHIS-N98 N94Q) | change of lipid-protein interaction (6XHIS-ARV1-N98 K67A) | change of lipid-protein interaction (GST-ARV1-N50) | change of lipid-protein interaction (6XHIS-ARV1-N98 C34/C37A) | change of lipid-protein interaction (6XHIS-ARV1-N98 K84A)
CCCCCCCC/C=C\CCCCCCCC(=O)OC[C@H](COP(=O)(O)OCC(O)CO)OC(=O)CCCCCCC/C=C\CCCCCCCC (some centres unmarked) [PG, phosphatidylglycerol] | reduced | NC | NC | weakened | eliminated | weakened or eliminated | weakened
CCCCCC(=O)O[C@H](COC(=O)CCCCCNC(=O)CCCC[C@@H]1SC[C@@H]2NC(=O)N[C@@H]21)COP(=O)(O)O[C@H]1[C@H](O)[C@@H](O)[C@H](OP(=O)(O)O)[C@@H](O)[C@H]1O [reference compound] |  | weakened | weakened | increased interactions |  | enhanced interactions | increased interactions
CCCCCCCCCCCCCCCCCC(=O)OC[C@H](COP(=O)(O)OC[C@H](N)C(=O)O)OC(=O)CCCCCCCCCCCCCCCCC [PS, phosphatidylserine] | NC | NC | NC |  | restored | enhanced | 
